US20250248933A1, “Prophylactic and Therapeutic Agents for Upper Respiratory Tract Infections Caused by Influenza and Other Enveloped Viruses” (priority 2020, published 2025)

Columns and labels:
[1] = in vivo; cited from earlier work
[2] = test system: rhinoviruses; conditions: cited from earlier work
[3] = test system: common colds; conditions: 37 zinc-treated subjects; cited from earlier work
[4] = test system: influenza viruses; conditions: determined by the present inventor
[5] = test system: common cold germs; conditions: cited from earlier work
[6] = test system: rhinovirus; conditions: cited from earlier work

## CCCc1cc(=O)oc2c3c(c4c(c12)OC(C)(C)C=C4)O[C@H](C)[C@@H](C)[C@@H]3O [Calanolide A]
[1]
  safety and tolerability: safe and well tolerated

## zinc
[2]
  inhibition of replication of rhinoviruses: inhibit the replication
[3]
  subjects asymptomatic after seven days: 86%

## CCO [Ethanol, ethanol]
[4]
  ability to kill influenza viruses: ineffective
[5]
  killing of common cold germs in oral mucosa: known to kill
[6]
  activity against rhinovirus: works well
